Data taken from US10617769B2, “Bacterium-contained hydrogel and method of making the same” (TCI Co., Ltd., priority 2016, dated 2020).
In brackets after ≈: the same amount, converted by molar mass.

Tests used:
P. acnes = assay: Fermentation of PEG-monosaccharide polymers in solid agar medium with phenol red; format: cell-based, Propionibacterium acnes; settings: compound (+), P. acnes added to solid agar medium
Experimental: (§1) The experimental method is described as follows: compound A and compound B were respectively added to the solid agar media, and S. epidermidis or P. acnes were added to the media, then the bacteria were incubated, and then the color of phenol red in the media were recorded.

S. epidermidis = assay: as above; format: cell-based, Staphylococcus epidermidis; settings: compound (+), S. epidermidis added to solid agar medium
Experimental: as §1

USA300 [1] = assay: Minimum bactericidal concentration (MBC) assay, anti-USA300 activity of SCFAs; format: cell-based, Staphylococcus aureus; settings: USA300 10^6 CFU/mL, overnight incubation, tested 0.02 mM to 100 mM; for MBC: Staphylococcus aureus
Experimental: Experimental method: USA 300 (10^6 CFU/m L) were respectively incubated with different concentrations of butyric acid or acetic acid on 96-well microtiter plates overnight; the testing concentrations of acetic acid and butyric acid were from 0.02 mM to 100 mM, each well was respectively added 100 microliters of acetic acid or butyric acid with different concentrations. In the control groups, only PBS was added to the wells. After incubation, the USA300 was diluted 1:10^0 to 1:10^5 with PBS, 5 μl of the dilution was spread to the agar plate; after overnight incubation, colonies (CFU) on the algal plate were counted. MBC is defined as the degree of sterilization at 99.9% (greater than […] colony/mL).
Referring to FIG. 4A through FIG. 4D. FIG. 4A and FIG. 4C show the images of bacterial growth on culture plates. […] UD means undetectable.

USA300 [2] = settings: in vitro and in vivo; stated as known; cited from earlier work

SMILES | Color of phenol red in the medium (P. acnes) | Color of phenol red in the medium (S. epidermidis) | MBC (USA300 [1]) [mM] | Concentration for complete inhibition (USA300 [1]) [mM] | Growth of USA300 (USA300 [2])
C#CCOCCOCCOCCOCCOC1OC(COC(C)=O)C(OC(C)=O)C(OC(C)=O)C1OC(C)=O [Compound B, PEG5-tetra-Ac-beta-D-glucose] | Red | Yellow | – | – | –
CCCC(=O)O [butyric acid] | – | – | 10 (≈ 881 µg/mL) | 50 | –
C#CCOCCOCCOCCOCCOC1OC(CO)C(O)C(O)C1O [Compound A, propargyl-PEG5-beta-D-glucose] | Red | Yellow | – | – | –
CC(=O)O [acetic acid] | – | – | 10 (≈ 601 µg/mL) | 50 | –
CCC(=O)O [propionic acid] | – | – | – | – | suppress the growth of USA300
